Results reported in US11866704B2, “Nucleic acid molecules and uses thereof” (Macau University of Science and Technology, priority 2020, dated 2024).
[s4U] = 4-thiouridine base; m = 2'-O-methyl; r = 2'-OH (RNA)

Experiments:
[1] = tested on: HCT-8 cells; experiment: Wound-healing assay on HCT-8 cells; type: cell-based, human; conditions: 50 nM; for wound area, inhibition of migration (FIG. 9A): vs control group
Procedure: (§1) HCT-8, fluorouracil-resistant HCT-8, fluorouracil-resistant LoVo cell lines were cultured in RPMI Medium 1640 medium containing 10% FBS and 1% penicillin/streptomycin. LoVo cell line was cultured in F-12K medium containing 10% FBS and 1% penicillin/streptomycin. All cell lines above were cultured at humidified atmosphere containing 5% CO2 at 37° C.
(§2) In the wound-healing assay, HCT-8 or LoVo cells were plated in 6-well microplate at a density of 500,000 cells per well in 2 mL of culture medium and allowed to adhere for 24 h before treatment. […] A 1 mL bacteria-free pipette tip was used to make a cross-scratch at the bottom of 6-well microplate. The cells in the scratch were washed away using phosphor buffer solution and the 6-well microplate was photographed under a microscope. Single concentration of RNA molecules obtained in Example 1 to 4 in a mixture containing a gene delivery carrier, i.e. Lipofectamine™ RNAiMAX Transfection Reagent (Thermo Fisher Scientific, U.S.A.) were then added to the cells. The cells were then photographed under microscope at 24 and 48 h. ImageJ software was applied to quantify the area of wound created. Each experiment was carried out for three times. Results were expressed as means±standard deviation.

[2] = tested on: LoVo/5-FU (5-FU-resistant strain of LoVo); experiment: MTT cytotoxicity assay on LoVo/5-FU cells; type: cell-based; conditions: for effect on growth and proliferation (FIGS. 7A, 7B): 6.25-100 nM; for IC50: MTT, 48 h treatment
Procedure: as §1
(§3) In the cytotoxicity assay, exponentially growing cells of each cancer cell line were plated in 96-well microplate at a density of 5000 cells per well in 100 μL of culture medium and allowed to adhere for 24 h before treatment. Serial concentrations of RNA molecules obtained in Example 1 to 4 in a mixture containing a gene delivery carrier, i.e. Lipofectamine™ RNAiMAX Transfection Reagent (Thermo Fisher Scientific, U.S.A.) were then added to the cells. After treated for 48 h, MTT solution (50 μL per well, 1 mg/mL solution) was added to each well and incubated for 4 h at 37° C. Subsequently, 200 μL dimethyl sulfoxide (DMSO) were added and the optical densities of the resulting solutions were calorimetrically determined at 570 nm using a SpectraMax 190 microplate reader (Molecular Devices, Sunnyvale, CA, U.S.A). Dose-response curves were obtained, and the IC50 values were calculated by GraphPad Prism 5 (GraphPad, La Jolla, CA, USA). Each experiment was carried out for three times. IC50 results were expressed as means±standard deviation.

[3] = tested on: HCT-8 cells; experiment: Clonogenic assay on HCT-8 cells; type: cell-based, human; conditions: 50 nM; for colony number, inhibition of proliferation (FIG. 8A): vs control group
Procedure: as §1
(§4) In the clonogenic assay, HCT-8 or LoVo cells were plated in 6-well microplate at a density of 1000 cells per well in 2 mL of culture medium and allowed to adhere for 24 h before treatment. Single concentration of RNA molecules obtained in Example 1 to 4 in a mixture containing a gene delivery carrier, i.e. Lipofectamine™ RNAiMAX Transfection Reagent (Thermo Fisher Scientific, U.S.A.) were then added to the cells. After treated for 48 h, discarded the drug solutions and replaced with 2 mL of fresh culture medium. After culture 14 days, discarded the culture medium and the cells were fixated with 4% paraformaldehyde fix solution for 20 min, followed by stained with crystal violet for 10 min and then washed by deionized water. The 6-well microplate was photographed and the number of colonies with more than 50 individual cells were counted using ImageJ software (U.S.A.). Each experiment was carried out for three times. Results were expressed as means±standard deviation.

[4] = tested on: LoVo cells; experiment: Clonogenic assay on LoVo cells; type: cell-based; conditions: 25 nM; for colony number, inhibition of proliferation (FIG. 8B): vs control group
Procedure: as §1, §4

[5] = tested on: HCT-8 human ileocecal colorectal adenocarcinoma cell line; experiment: MTT cytotoxicity assay on HCT-8 cells; type: cell-based; conditions: HCT-8; for effect on growth and proliferation (FIGS. 7A, 7B): 6.25-100 nM; for IC50: MTT, 48 h treatment
Procedure: as §1, §3

[6] = tested on: LoVo colorectal adenocarcinoma cell line; experiment: MTT cytotoxicity assay on LoVo cells; type: cell-based; conditions: for effect on growth and proliferation (FIGS. 7A, 7B): 6.25-100 nM; for IC50: MTT, 48 h treatment
Procedure: as §1, §3

[7] = tested on: HCT-8/5-FU (5-FU-resistant strain of HCT-8); experiment: MTT cytotoxicity assay on HCT-8/5-FU cells; type: cell-based, human; conditions: for effect on growth and proliferation (FIGS. 7A, 7B): 6.25-100 nM; for IC50: MTT, 48 h treatment
Procedure: as §1, §3

[8] = tested on: LoVo cells; experiment: Wound-healing assay on LoVo cells; type: cell-based; conditions: 25 nM; for wound area, inhibition of migration (FIG. 9B): vs control group
Procedure: as §1, §2

[9] = among EC83 mimic and modified mimics

Substance | wound healing inhibition ranking (FIG. 9A) [1, 9] | wound area, inhibition of migration (FIG. 9A) [1] | effect on growth and proliferation (FIGS. 7A, 7B) [2] | IC50 [2] [nM] | anti-proliferation activity ranking (FIG. 8A) [3, 9] | colony number, inhibition of proliferation (FIG. 8A) [3] | anti-proliferation activity ranking (FIG. 8B) [4, 9] | colony number, inhibition of proliferation (FIG. 8B) [4] | effect on growth and proliferation (FIGS. 7A, 7B) [5] | IC50 [5] [nM] | effect on growth and proliferation (FIGS. 7A, 7B) [6] | IC50 [6] [nM] | effect on growth and proliferation (FIGS. 7A, 7B) [7] | IC50 [7] [nM] | wound healing inhibition ranking (FIG. 9B) [8, 9] | wound area, inhibition of migration (FIG. 9B) [8]
EC83-M2 mimic: modified EC83 dsRNA; antisense SEQ ID NO: 2 GCCGAAGUGGCGAAAUC[Gm]GUAG, sense SEQ ID NO: 5 CUACCGAUUUCGCCACUUCGGC (antisense GCCGAAGUGGCGAAAUCGGUAG; antisense: sugars from the 5' end r17 m1 r4, backbone not given here; sense: RNA, backbone not given here; tRNA-derived fragment mimic duplex) | strongest inhibition effect on the wound healing | significantly inhibit the migration | dose-dependent effect on inhibiting the growth and proliferation | 18.3 | strongest anti-proliferation activity | significantly inhibit the proliferation | strongest anti-proliferation activity | significantly inhibit the proliferation | dose-dependent effect on inhibiting the growth and proliferation | 58.9 | dose-dependent effect on inhibiting the growth and proliferation | 19.9 | dose-dependent effect on inhibiting the growth and proliferation | 48.8 | strongest inhibition effect on the wound healing | significantly inhibit the migration
EC83-M3 mimic: modified EC83 dsRNA; antisense SEQ ID NO: 3 GCCGAAG[s^4U]GGCGAAAUC[Gm]GUAG, sense SEQ ID NO: 6 CUACCGAUUUCGCCACUUCGGC (antisense GCCGAAGUGGCGAAAUCGGUAG; antisense: sugars from the 5' end r17 m1 r4, [s4U] at 8, backbone not given here; sense: RNA, backbone not given here; tRNA-derived fragment mimic duplex) |  | significantly inhibit the migration | dose-dependent effect on inhibiting the growth and proliferation | 23 |  | significantly inhibit the proliferation |  | significantly inhibit the proliferation | dose-dependent effect on inhibiting the growth and proliferation | 74.5 | dose-dependent effect on inhibiting the growth and proliferation | 24.1 | dose-dependent effect on inhibiting the growth and proliferation | 72.2 |  | significantly inhibit the migration
